Measurements as given in patent US4221787A, “Esteramide prodrugs of anti-inflammatory corticosteroids” (INTERx Research Corporation, priority 1979, dated 1980).

Experiments:
[1] = test system: thymus glands; experiment: Effect of selected steroid derivatives on thymus weight (systemic effect); format: in vivo, Sprague-Dawley rats; details: 48 hours after burn and application of 0.03 M steroid in isopropyl myristate; lower weight = more pronounced systemic effect; Control 233.5 ± 11.5
Experimental: A modification of the method of Tonelli et al, Endocrinology, 77, 625 (1965), was used. […] The rats were first anesthetized with phenobarbitol, then the right ear of each rat was burned on both side for 10 seconds between two vertically oriented brass cylinders heated with water at 51.7° C. from a constant temperature bath. The pressure of the cylinder on the rat ear was reproduced by using only the weight of the top brass cylinder (2.5 lbs) to apply the pressure. The burned rat ear was then immediately treated on both sides with […] of vehicle (isopropyl myristate) or 0.03 M steroid in the vehicle. After 16 hours, both ears of the rat were removed along anatomical guidelines and weighed.
Effect of Selected Steroid Derivatives on Thymus Weight
The rats used in the ear burn test described in Example 18 were revived and 48 hours after the burn and application of the steroid, they were sacrificed with carbon dioxide. Then their thymus glands were removed and weighed. The lower the weight of thymus, the more pronounced the systemic effect of the steroid.

[2] = test system: mouse skin; details: in vivo
Experimental: Effect of Selected Steroid Derivatives on Skin Thickness A modification of the method of Smith et al, Arch Derrmatol, 112, 1115 (1976), was used. Hairless mice were used instead of rats. The steroids were tested at 0.03 M in propyleneglycol suspension except for hydrocortisone 17-butyrate which was soluble. Each suspension (50 μl) was applied to the backs of 9 mice daily. On the twenty-ninth day of the experiment, the mice were sacrificed with carbon dioxide and the double fold skin thickness was immediately measured using an Ames micrometer accurate to 0.0001 inch at a pressure of 28 lb/cm^2. The measurement was taken after three minutes had elapsed from the time the mouse skin was placed in the micrometer.

[3] = test system: burned rat ear; experiment: Effect of selected steroid derivatives on ear burn inflammation; format: in vivo, Sprague-Dawley rats; details: 0.03 M steroid in isopropyl myristate, rat ear burned at 51.7° C. for 10 seconds, ears weighed after 16 hours, 5 rats
Experimental: The pressure of the cylinder on the rat ear was reproduced by using only the weight of the top brass cylinder (2.5 lbs) to apply the pressure. The burned rat ear was then immediately treated on both sides with […] of vehicle (isopropyl myristate) or 0.03 M steroid in the vehicle. After 16 hours, both ears of the rat were removed along anatomical guidelines and weighed.
The increase of weight caused by the burn was determined by subtracting the weight of the untreated left ear from the weight of the treated right ear.
The percent inhibition of inflammation was then determined as the weight increase of burned rat ears treated only with vehicle minus the weight increase of burned rat ears treated with vehicle containing the steroid divided by the weight increase of burned rat ears treated only with vehicle times one hundred.

| Thymus Weight [1] [mg] | % Decrease from Control (double fold skin thickness) [2] [%] | Structure (SMILES) | % Inhibition (of ear burn inflammation) [3] [%] |
| --- | --- | --- | --- |
| 149.6 ± 11.7 | 39.2 | CCCC(=O)O[C@]1(C(=O)CO)CC[C@H]2[C@@H]3CCC4=CC(=O)CC[C@]4(C)[C@H]3[C@@H](O)C[C@@]21C [Hydrocortisone 17-butyrate] | 28.9 |
|  |  | C[C@]12CCC(=O)C=C1CC[C@@H]1[C@@H]2[C@@H](O)C[C@@]2(C)[C@H]1CC[C@]2(O)C(=O)COC(=O)[C@@H]1CCC(=O)N1 [4-Pregnene-11β,17α-dihydroxy-21-(2'-oxopyrrolidin-5'-yl)carbonyloxy-3,20-dione] | 50.5 |
|  |  | CCCC(=O)O[C@]1(C(=O)COC(=O)CCC(=O)N(CC)CC)CC[C@H]2[C@@H]3CCC4=CC(=O)CC[C@]4(C)[C@H]3[C@@H](O)C[C@@]21C [4-Pregnene-11β-Hydroxy-17α-butyryloxy-21-(N,N-diethylsuccinamyloxy)-3,20-dione] | 20.4 |
| 177.2 ± 11.0 | 37.5 | CC(=O)OCC(=O)[C@@]1(O)CC[C@H]2[C@@H]3CCC4=CC(=O)CC[C@]4(C)[C@H]3[C@@H](O)C[C@@]21C [Hydrocortisone 21-acetate] | 31.0 |
| 65.3 ± 8.1 | 45.8 | CC1(C)O[C@@H]2C[C@H]3[C@@H]4CCC5=CC(=O)C=C[C@]5(C)[C@@]4(F)[C@@H](O)C[C@]3(C)[C@]2(C(=O)CO)O1 [Triamcinolone acetonide] | 53.8 |

| Structure (SMILES) | Thymus Weight [1] [mg] | % Decrease from Control (double fold skin thickness) [2] [%] | % Inhibition (of ear burn inflammation) [3] [%] |
| --- | --- | --- | --- |
| CCN(CC)C(=O)CCC(=O)OCC(=O)[C@@]1(O)CC[C@H]2[C@@H]3CCC4=CC(=O)CC[C@]4(C)[C@H]3[C@@H](O)C[C@@]21C [4-Pregnene-11β,17α-dihydroxy-21-(N,N-diethylsuccinamyloxy)-3,20-dione] |  | 26.7 | 49.2 |
| C[C@]12CCC(=O)C=C1CC[C@@H]1[C@@H]2[C@@H](O)C[C@@]2(C)[C@H]1CC[C@]2(O)C(=O)CO [Hydrocortisone] | 190.3 ± 29.7 |  | 3.3 |
